≈ marks a conversion by molar mass, not a printed value. Like-named read-outs stand apart in the source and are kept apart here.
Experiments:
[1] = system: third-instar larvae of insecticide-susceptible Aedes aegypti; test: contact mortality bioassay, 24 h exposure; assay type: in vivo; details: for LC50: Aedes aegypti, 24 h, read-out: LC50 (mg/L) (95% CI)
Method: (§1) A contact mortality bioassay[25] was used to evaluate the toxicity of all compounds against third-instar larvae of the four mosquito species. Each test compound in methanol was suspended in DW with Triton X-100 (20 µL/L). Groups of 20 mosquito larvae were separately placed into paper cups (270 mL) containing each compound solution (250 mL). […] Negative controls consisted of a methanol–Triton X-100 solution in DW.
(§2) Treated and control (methanol–Triton X-100 solution only) larvae were maintained under the same conditions as those used for colony maintenance without providing food. Larval mortalities were determined 24 h post-treatment. […] All treatments were performed three times using 20 larvae per replicate.
(§3) The concentration of the test compounds required to produce 50% AChE inhibitory activity (IC50) was determined using the SAS 9.13 program (Cary: SAS Institute; 2014). Concentration-mortality data were subjected to probit analysis using the SAS 9.13 program. […] Statistical analyses were performed using the SAS 9.13 program. Multiple linear regression and correlation analysis were performed using the SPSS 24 program (Armonk: IBM Corp.; 2016).

[2] = system: third-instar larvae of insecticide-susceptible Culex pipiens pallens; test: contact mortality bioassay, 24 h exposure; assay type: in vivo; details: for LC50: Culex pipiens, 24 h, read-out: LC50 (mg/L) (95% CI)
Method: as §1, §2, §3

[3] = molecular target: acetylcholinesterase (AChE) from third-instar Ae. aegypti larvae (Aedes aegypti, UniProt A4GND7); test: acetylcholinesterase inhibition assay; assay type: biochemical; details: based on IC50 values
Chain of acetylcholinesterase (AChE) from third-instar Ae. aegypti larvae (A4GND7 37-679): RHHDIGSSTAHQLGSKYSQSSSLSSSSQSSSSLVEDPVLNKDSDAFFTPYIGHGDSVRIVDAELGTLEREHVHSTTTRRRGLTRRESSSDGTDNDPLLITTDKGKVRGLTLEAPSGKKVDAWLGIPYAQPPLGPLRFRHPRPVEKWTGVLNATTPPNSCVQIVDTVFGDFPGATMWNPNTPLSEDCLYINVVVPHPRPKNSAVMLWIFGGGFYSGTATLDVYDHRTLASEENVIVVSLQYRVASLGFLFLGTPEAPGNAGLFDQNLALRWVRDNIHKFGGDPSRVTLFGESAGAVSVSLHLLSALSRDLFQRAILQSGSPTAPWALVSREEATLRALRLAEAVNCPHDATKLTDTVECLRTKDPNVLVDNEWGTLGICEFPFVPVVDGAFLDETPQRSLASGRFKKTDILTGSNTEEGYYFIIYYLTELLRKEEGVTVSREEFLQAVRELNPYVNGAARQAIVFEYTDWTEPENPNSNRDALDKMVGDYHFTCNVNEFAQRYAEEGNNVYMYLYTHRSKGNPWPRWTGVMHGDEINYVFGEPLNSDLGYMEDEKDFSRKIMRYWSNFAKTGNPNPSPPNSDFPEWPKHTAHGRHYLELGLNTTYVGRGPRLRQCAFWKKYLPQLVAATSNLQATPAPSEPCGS
Method: The in vitro AChE inhibitory activity of the test compounds was assessed according to the method of Perumalsamy et al.[42]. Third-instar Ae. aegypti larvae were used in all experiments. Whole bodies of 50 larvae were homogenized in 1 mL of ice-cold 0.1 M phosphate buffer (pH 8.0) using a glass tissue homogenizer. After filtering through cheesecloth, the homogenate was centrifuged at 1,000 × g at 4 °C for 5 min. The supernatant was used directly as the enzyme source for AChE. The protein levels were determined using the Bradford Protein Assay Kit (Bio-Rad Laboratories, Hercules, CA, USA) using BSA as the standard. The reaction mixture consisted of 50 µL of the crude enzyme preparation (4.3–4.8 µg protein equivalents), 150 µL of 0.1 M phosphate buffer, 20 µL of 3 mM DTNB in phosphate buffer (pH 7.0), and 1 µL of various concentrations of each test compound in ethanol. The reaction mixture was incubated at 30 °C for 5 min, and 20 µL of 32 mM ATChI was then added to the mixture. After incubation for 30 min, the reaction was terminated by adding 20 µL of 5 mM eserine salicylate. Absorbance was recorded at 412 nm using a VersaMax microplate reader (Molecular Devices, Sunnyvale, CA, USA). […] The results are expressed as the means ± standard errors (SEs) of triplicate samples from three independent experiments.
as §3

[4] = system: third-instar Ae. aegypti larvae; test: light microscopy analysis of treated larvae; assay type: in vivo, Aedes aegypti; details: honokiol 6.5 mg/L or magnolol 25 mg/L (LC50), 24 h
Method: At 24 h post-treatment, the untreated and treated larvae were placed on a microscope slide at room temperature for light microscopy. Morphological observations were made with an EZ4 HD stereo microscope (35×) equipped with an Integrated 3.0 Mega-Pixel CMOS camera (Leica Microsystems, Heerbrugg, Switzerland). All experiments were performed in duplicate, with 20 mosquito larvae used in each replicate. More than 10 live larvae from the control and treated groups were randomly collected and used for analysis.

[5] = system: midgut regions of third-instar Ae. aegypti larvae; test: histologic analysis by Carson's trichrome staining; assay type: in vivo, Aedes aegypti; details: honokiol 6.5 mg/L or magnolol 25 mg/L (LC50), 24 h
Method: At 24 h post-treatment, Ae. aegypti larvae untreated and treated with honokiol or magnolol were immediately fixed in Bouin’s fluid[75] at 4 °C for 24 h. Larvae were then dehydrated in an ethanol-tetrahydrofuran-xylene series and embedded in Paraplast X-tra (Sigma-Aldrich). The embedded preparations of the larvae were sectioned at a 5 μm thickness using a Microm HM 340E rotary microtome (Thermo Scientific, Walldorf, Germany). The sections were dried at 40 °C overnight, subsequently deparaffinized with CitriSolv (Fisher Scientific, Fair Lawn, NJ, USA), and rehydrated with a series of ethanol in phosphate-buffered saline (PBS) solutions[30]. The rehydrated sections were stained in Weigert’s iron hematoxylin for 30 s, followed by Carson’s trichrome staining procedure. This staining protocol stained the columnar and goblet cells of the midgut blue and red, respectively. These sections were then dehydrated, cleared in xylene, and mounted in EMS Permount (Electron Microscopy Sciences, Hatfield, PA, USA). Images were observed and captured using a DMIL LED microscope (Leica Microsystems, Wetzlar, Germany) equipped with a Leica MC 170 HD. Observations were taken of 15 larvae under the microscope.

[6] = system: midgut and anal gills of third-instar Ae. aegypti larvae; test: transmission electron microscopy analysis of midgut and anal gills; assay type: in vivo, Aedes aegypti; details: honokiol 6.5 mg/L or magnolol 25 mg/L (LC50), 24 h
Method: At 24 h post-treatment, the midgut and anal gills of the untreated and treated Ae. aegypti larvae were fixed in Karnovsky’s fixative (2% (v/v) glutaraldehyde and 2% (v/v) paraformaldehyde in 0.05 M sodium cacodylate buffer (pH 7.2)) at 4 °C in darkness for 2–4 h and were washed three times with the same buffer. The specimens were post-fixed with 1% (w/v) osmium tetroxide in the same buffer at 4 °C for 2 h and washed with DW three times. The post-fixed specimens were then dehydrated through a graded series of ethanol with increasing concentrations up to 100% for 15 min. The specimens were further treated with propylene oxide twice each for 15 min as a transitional fluid and embedded in Spurr’s resin[77]. Ultrathin sections (approximately 50 nm thickness) were cut with a UC6 ultramicrotome (Leica Microsystems, Wetzlar, Germany) and stained in 2% aqueous uranyl acetate for 7 min at room temperature as well as with Reynolds lead citrate[78] for 7 min. The sections were mounted on copper grids, and micrographs were obtained from a CM120 transmission electron microscope (Philips Electronics, Amsterdam, Netherlands) at 80 kV. Images were captured using a MegaView III digital camera (Olympus-SIS, Lakewood, CO, USA). Observations were taken of 12 larvae via TEM.

[7] = Table 7, structure-activity series, 24 h exposure
[8] = Table 6, structure-activity series, 24 h exposure
[9] = Table 3, 24 h exposure, listed as Pure honokiol
[10] = Table 2, KS-CP strain, 24 h exposure, listed as Pure honokiol

## C=CCc1ccc(O)c(-c2cc(CC=C)ccc2O)c1 [Magnolol, magnolol]
[1]; [7]
  LC50: 25.7 mg/L (≈ 96.5 µM)
  LC90 (mg/L) (95% CI): 83.14 (64.68–124.4) mg/L
[2]; [8]
  LC50: 26 mg/L (≈ 97.6 µM)
  LC90 (mg/L) (95% CI): 80.42 (63.28–117.4) mg/L
[3]
  AChE inhibitory activity (in words): strongly
[4]
  anal gill region (light microscopy): completely damaged outer cuticle membranes with undistinguishable anal gills with no internal body fluid
  morphology of the whole body (light microscopy): shrunken body with no distinct abdominal segments
[5]
  histology of midgut region (Carson's staining): indistinct midgut epithelial layers and PMs
[6]
  histopathological effects on anal gills (TEM): damaged outer membranes of thick cuticles, which led to internal cytoplasmic destruction
  histopathological effects on midgut (TEM): complete disappearance of nuclei as well as cytoplasmic contents

## C=CCc1ccc(O)c(-c2ccc(O)c(CC=C)c2)c1 [Honokiol, 2-(4-hydroxy-3-prop-2-enyl-phenyl)-4-prop-2-enyl-phenol]
[1]; Table 3, 24 h exposure
  LC50: 6.51 mg/L (≈ 24.4 µM)
[1]; [7]
  LC50: 6.51 mg/L (≈ 24.4 µM)
[1]; Table 3, 24 h exposure, listed as Natural honokiol
  LC90 (mg/L) (95% CI): 22.59 (17.70–34.15) mg/L
[1]; [9]
  LC50 (mg/L) (95% CI): 6.48 (5.11–7.90) mg/L
  LC90 (mg/L) (95% CI): 23.84 (18.41–37.36) mg/L
[1]; from 24 h LC50 values
  times less toxic than temephos: 521 times
[2]; Table 2, KS-CP strain, 24 h exposure
  LC50: 6.32 mg/L (≈ 23.7 µM)
[2]; [8]
  LC50: 6.32 mg/L (≈ 23.7 µM)
  LC90 (mg/L) (95% CI): 18.78 (15.30–25.99) mg/L
[2]; Cx. pipiens pallens and Ae. aegypti larvae
  times more toxic than the structural isomer magnolol: approximately 4 times
[2]; Table 2, KS-CP strain, 24 h exposure, listed as Natural honokiol
  LC90 (mg/L) (95% CI): 18.78 (15.30–25.99) mg/L
[2]; [10]
  LC50 (mg/L) (95% CI): 6.38 (5.01–7.78) mg/L
  LC90 (mg/L) (95% CI): 19.30 (15.64–27.01) mg/L
[2]; from 24 h LC50 values
  times less toxic than temephos: 390 times
[3]
  AChE inhibitory activity (in words): moderately
[4]
  anal gill region (light microscopy): the anal gill from one side was swollen and reduced from its normal length, and the other one was completely damaged
  morphology of the whole body (light microscopy): severely damaged, with an indistinct appearance of the thorax, midgut, and abdominal regions
[5]
  histology of midgut region (Carson's staining): indistinct damaged midgut epithelial layers
[6]
  histopathological effects on anal gills (TEM): cytoplasmic disruption with damaged anal gill cells
  histopathological effects on midgut (TEM): devastated cellular material and extruded masses in the cytoplasm

— article PMC6344527, “Toxicity and possible mechanisms of action of honokiol from Magnolia denudata seeds against four mosquito species” (Scientific Reports, 2019)
